Patent US20180110796A1, “COMPOSITIONS AND METHODS FOR THE TREATMENT OF HBV INFECTION” (Spring Bank Pharmaceuticals, Inc., priority 2015, published 2018)

What was measured:
HBV = test: Dose-ranging study in the HBV transgenic mouse model; assay type: in vivo; details: once-daily oral 1 to 100 mg/kg/day for 14 days
[1] = tested on: HBV-infected primary human hepatocytes; test: In vitro studies using HBV-infected primary human hepatocytes; assay type: cell-based
Excerpt: (§1) During viral infections, virus-derived nucleic acids (both DNA and RNA) are mainly sensed by certain pattern-recognition receptors such as RIG-1 and NOD2 which are located within the cytoplasm of cells, including hepatocytes. Binding of these viral sensor proteins to PAMP within the viral nucleic acids activates downstream signaling pathways which include the mitochondrial antiviral signaling protein (MAVS) leading to the induction of the IFN-regulatory factor-3 (IRF-3) and NF-κB dependent gene expression, and the subsequent production of type I and type III IFNs and inflammatory cytokines. Thus, sensing of viral nucleic acids is a crucial process to induce antiviral innate immune responses for limiting viral replication and for activation of adaptive immunity. For HBV it has been recently shown that RIG-1 sensing is mediated through recognition of the 5′-end ϵ region of the HBV pg RNA which leads to the induction of type III rather than type I IFNs in human primary hepatocytes in response to in vitro infection. In addition, activated RIG-1 is able to counter-act the interaction of the HBV polymerase protein with the HBV pgRNA in an IFN pathway independent manner resulting in suppressed viral replication. […]

[2] = Tolerability / drug safety of oral Formula (IIa) in chronic WHV carrier woodchucks (Example 2); assay type: in vivo, woodchuck (Marmota monax)
Excerpt: All woodchucks used in this study were born in captivity and infected at 3 days of age with the cWHV7P2a inoculum containing WHV strain 7-11 (WHV7). cWHV7P2a has the same biological and virological characteristics as the parent cWHV7P2 inoculum as both were derived from cWHV7P1. Chronically infected animals were confirmed positive for serum WHV DNA and WHV surface antigen (WHsAg) and had undetectable antibodies against WHsAg (anti-WHs) at approximately 1 year post-infection. Absence of liver tumors in woodchucks with low gamma-glutamyl transferase (GGT) was confirmed by ultrasonography. Chronic WHV carrier woodchucks were assigned and stratified by gender, body weight, and by pretreatment serum markers (WHV DNA and WHsAg loads and serum GGT and sorbitol-dehydrogenase (SDH) levels) into two groups (n=5 each). Woodchucks were treated daily, orally with either a low (15 mg/kg) or high dose (30 mg/kg) of Formula (IIa) for 12 weeks. For select assays, blood and liver samples from five age-matched chronic WHV carrier woodchucks were included for comparison of basal expression levels of immune response genes in untreated animals with pretreated levels in Formula (IIa) treated animals.
Various measurements (body weight, body temperature, clinical chemistry, and hematology) were obtained weekly to monthly throughout the study to monitor drug safety. Serum and hepatic WHV parameters, host immune response parameters, and drug safety parameters were compared to the values at pretreatment and between both dose groups using unpaired Student's t-test with equal variance. P values of <0.05 were considered statistically significant.

HCV, Norovirus and RSV = test: In vitro and in vivo studies against RNA viruses
Excerpt: as §1

[3] = tested on: woodchuck hepatitis virus (WHV); test: Formula (IIa) in combination with entecavir, sequential oral treatment of chronic WHV carrier woodchucks (Example 3); assay type: in vivo, woodchuck (Marmota monax)
Excerpt: Ten (10) woodchucks chronically infected with WHV were used. Woodchucks were born in captivity and were inoculated at 3 days of age with cWHV7P2a inoculum, then reared until 11 months of age. Prior to the study, woodchucks were confirmed as established chronic carriers of WHV based on established criteria including the presence of WHV surface antigen (WHsAg), antibody against […], and WHV DNA. Woodchucks used in the study were of both gender and approximately between 12 and 14 months of age at the start of the study.
Two (2) groups of five (5) chronic WHV carrier woodchucks each were used in the study:
Group 1 was orally treated for 4 weeks with ETV at a daily dose of 0.5 mg/kg starting at T0, followed by add-on treatment with Formula (IIa) for 12 weeks at a daily dose of 30 mg/kg. Woodchucks were then followed for a total of 24 weeks.
Group 2 was orally treated for 12 weeks with Formula (IIa) at a daily dose of 30 mg/kg starting at T0, followed by add-on treatment with ETV for 4 weeks at a daily dose of 0.5 mg/kg. Woodchucks were then also followed for a total of 24 weeks.
Formula (IIa) was supplied as a pre-weighed powder in individual containers. An amount of powder sufficient to treat all 10 pre-weighed woodchucks per day with Formula (IIa) was mixed directly with woodchuck diet powder (Dyets Inc., Bethlehem, Pa.) and then suspended with HPLC water. The drug was orally administered with a dose syringe at T0 (Group 2) or after 4 weeks of treatment with ETV (Group 1), and thereafter every day for 12 weeks (84 days). Drug dosing was then followed by an extra 2 ml of woodchuck liquid diet to ensure complete consumption of Formula (IIa).
ETV was provided as powder. An amount of powder sufficient to treat all 10 woodchucks per day was suspended in isotonic saline at a concentration of 0.5 mg/ml. A volume (ml) of drug solution equivalent to the body weight (kg) of an individual woodchuck was then mixed with approximately 3-5 ml of woodchuck liquid diet and administered orally with a dose syringe at T0 (Group 1) or after 12 weeks of treatment with Formula (IIa) (Group 2), and thereafter every day for 4 weeks (28 days). ETV dosing was followed by an extra 2 ml of woodchuck liquid diet to ensure complete consumption of drug.
Prior to administration of Formula (IIa) or ETV at T0, then weekly until the end of the study at week 24, whole blood samples were drawn from each woodchuck under ketamine/xylazine anesthesia for determinations of serum WHV DNA, WHsAg, and anti-WHs (see Summary Table below). […] Blood samples were kept at room temperature following collection and serum harvested upon observation of clot retraction. Harvested serum was transferred to microcentrifuge tubes and stored frozen at −70° C. until use.
The induction of an innate immune response in peripheral blood and liver of woodchucks by combination treatment with Formula (IIa) and ETV were determined via real time PCR-based assays. Whole blood samples were obtained prior to the start of treatment with Formula (IIa) at T0, and then at weeks 4, 10, 16, 20, and 24 (Group 1) or at weeks 6, 12, 16, 20, and 24 (Group 2) (see Summary Table below). Whole blood was drawn into PAXgene blood tubes at the indicated time points and stored at −70° C. until use. Total RNA was isolated from whole blood and treated with DNase using the PAXgene Blood miRNA Kit (Quiagen). This was followed by reverse transcription of mRNA into cDNA and amplification of host immune response genes by real time PCR. Woodchuck cytokine and interferon-stimulated genes included IFN-α, IFN-β, interleukin 6 (IL-6), 2′-5′-oligoadenylate synthetase 1 (OAS-1), interferon-induced 17 kDa protein (ISG15), and interferon gamma-induced protein 10 (IP-10or CXCL10). Woodchuck 18S rRNA expression was used to normalize target gene expression. […]

[4] = 15 and 30 mg/kg daily oral, 12 weeks
[5] = 30 mg/kg daily oral, week 12, Group 2 before add-on ETV

For `COC1[C@@H](OP(=O)(OC[C@H]2O[C@@H](n3cnc4c(N)ncnc43)C[C@H]2O)SCOC(=O)OC(C)C)[C@@H](CO)O[C@H]1n1ccc(=O)[nH]c1=O` (some centres unmarked) [Formula (IIa)], the “liver HBV DNA” value (HBV) was “significant reduction”, the “HBV DNA levels” value [1] was “significant reduction” and the “secreted HBsAg and HBV e antigen (HBeAg)” value ([1]; similar to IFN-α treatment) was “declines”. For the same molecule, the “mortality during the study” value [2, 4] was “no mortality”, the “tolerability (gross observations, body weights, body temperatures, hematology, clinical chemistry)” value [2, 4] was “well-tolerated” and the “serum levels of ALT and AST during and following treatment” value ([2]; both dose groups) was “essentially remained unchanged or declined slightly”. The “serum SDH levels during administration” value ([2]; especially initial 4-8 weeks, more pronounced in the high dose group) was “trend towards elevated”, the “antiviral activity against RNA viruses including HCV, Norovirus and RSV” value (HCV, Norovirus and RSV) was “potent antiviral activity” and the “decline of serum WHsAg until the end of Formula (IIa) treatment” value [3, 5] was 1.49 log 10. For the same molecule, the “reduction of mean serum WHV DNA from pretreatment level at the end of Formula (IIa) treatment” value [3, 5] was 3.54 log 10 and the “weeks per approximately 1 log10 decline of serum WHV DNA” value ([3]; Formula (IIa) 30 mg/kg, initial 6 weeks of treatment, Group 2) was roughly 3 weeks.
